Assays:
[1] = tested on: Lactobacillus casei and Streptococcus sp. FA-1; experiment: Acid-production inhibition by broth-tube assay, 0.1 percent of compound; format: cell-based; conditions: Table XII; 0.1% of compound
Description: ^(a) Activity was measured by broth-tube assay to determine percent
(§1) acid-production inhibition obtained by Lactobacillus casei and
Streptococcus sp. FA-1 in the presence of 0.1 percent of compound.
^(a) Activity was measured by broth-tube assay to determine percent o
as §1
Streptococcus sp. FA-1 in the presence of 0.1% of compound. Symbols

Streptococcus sp. GS-5 = experiment: Acid production inhibition, broth-tube technique; format: cell-based; conditions: Table XI, emulsion with 4 parts Tween 20
Description: (a)2,4-Hexadienal was prepared as an emulsion with 4 parts of Tween 20.

oral microorganisms [2] = experiment: Acid production inhibition in vitro (summary); format: cell-based; conditions: in words, summary of tables
Description: (§2) Other in vitro evaluations utilized a broth tube analysis of representative anticaries aldehydes incorporated in the vehicles of this invention against cultures of acid producing microorganisms normally present in the mouth. Standard laboratory procedures were utilized throughout to evaluate the acid production inhibition and growth inhibition over the incubation time of up to 24 hours.

oral microorganisms [3] = experiment: Growth inhibition in vitro (summary); format: cell-based; conditions: in words, summary of tables
Description: as §2

Streptococcus sp. FA-1 = experiment: Acid production inhibition, broth-tube technique; conditions: Table XI, emulsion with 4 parts Tween 20
Description: (§3) The data was compiled through well-known broth tube analysis techniques.
(a)Measured by broth-tube technique.

Lactobacillus casei = experiment: Acid production inhibition, broth-tube technique; conditions: Table XI, emulsion with 4 parts Tween 20
Description: as §3
(a)Measured by broth-tube technique.

CC=CC=CC=O [2,4-Hexadienal]
Activity, Acid-Production Inhibition, % [1]: ++++ (99 to 100) | Inhibition of Acid Production (Streptococcus sp. GS-5; 0.01 percent): 8% | Inhibition of Acid Production (Streptococcus sp. GS-5; 0.025 percent): 35% | Inhibition of Acid Production (Streptococcus sp. GS-5; 0.05 percent): 97% | Inhibition of Acid Production (Streptococcus sp. GS-5; 0.075 percent): 99% | Inhibition of Acid Production (Streptococcus sp. GS-5; 0.10 percent): 100% | Acid Production Inhibition (oral microorganisms [2]): excellent acid production inhibition | Growth Inhibition (oral microorganisms [3]): little or no growth inhibition | Inhibition of Acid Production (Streptococcus sp. FA-1; 0.01 percent): 31% | Inhibition of Acid Production (Streptococcus sp. FA-1; 0.025 percent): 92% | Inhibition of Acid Production (Streptococcus sp. FA-1; 0.05 percent): 99% | Inhibition of Acid Production (Streptococcus sp. FA-1; 0.075 percent): 99% | Inhibition of Acid Production (Streptococcus sp. FA-1; 0.10 percent): 100% | Inhibition of Acid Production (Lactobacillus casei; 0.01 percent): 27% | Inhibition of Acid Production (Lactobacillus casei; 0.025 percent): 43% | Inhibition of Acid Production (Lactobacillus casei; 0.05 percent): 88% | Inhibition of Acid Production (Lactobacillus casei; 0.075 percent): 94% | Inhibition of Acid Production (Lactobacillus casei; 0.10 percent): 98%

Reference: patent US4048299A, “Anticaries confectionaries and oral health products” (William Wrigley, Jr. Co., priority 1970, dated 1977)
